In the assay the test system is E. coli DH5 cells. The assay is described as follows: Minimum inhibitory concentration (MIC) of chloramphenicol in the specialized ribosome (CAT reporter) system. Format: cell-based. To be noted: Escherichia coli, DH5CELLS. The text has this:
To examine the role of potential interactions within the 530 loop (FIG. 3.1) nucleotides involved in the proposed interactions were randomly mutated using PCR and cloned into pRNA16ST, a derivative of pRNA122 (Lee et al., 1996; Lee et al., 1997). pRNA 16ST contains only the 16 S rRNA from the rrnB operon rather then the entire operon. […] In this specialized in vivo system, the chloramphenicol acetyltransferase (CAT) reporter message is translated exclusively by plasmid-derived ribosomes that cannot translate normal cellular messages (Lee et al., 1996; Lee et al., 1997). Thus, the minimal inhibitory concentration (MIC) of chloramphenicol for each mutant is correlated to the level of function of the plasmid-derived ribosomes. This allows for the selection of functional mutants on chloramphenicol containing media. Survivors were then sequenced and assayed for function by determining the MIC for each mutant.
Minimum inhibitory concentration (MIC). MICs were determined by standard methods in microtiter plates. Overnight cultures grown in LB-Ap100 were diluted and induced in the same medium containing 1 mM IPTG for two to three hours at 37° C. Approximately 10^4 induced cells were then added to wells containing LB-Ap100+IPTG (1 mM) and chloramphenicol at increasing concentrations.

In US8178659B2, “Targets for the identification of antibiotics that are not susceptible to antibiotic resistance” (priority 2005, dated 2012) one finds MIC data, which are given here for 1 molecule.

Values after ≈ are worked out from the molar mass of the structure shown.

For the molecule `O=C(N[C@H](CO)[C@H](O)c1ccc([N+](=O)[O-])cc1)C(Cl)Cl` [chloramphenicol], the MIC is 700 µg/mL (≈ 2170 µM) (cells expressing wild-type ribosomes in the system (pRNA123)) and 15 µg/mL (≈ 46.4 µM) (uninduced wild-type plasmid (pRNA228) as well as a lethal clone).

As usually defined, the MIC is the lowest concentration that inhibits growth of the organism.
